What all share (test): NCI tumour cell line growth inhibition, 48 h
The test system of assay [1] is A549 NSCLC.
The subject of assay [2] is HL-60(TB) leukemia.
Assay [3] has as its system M14 melanoma.
Assay [4] relates to NCI-H226 lung.
For assay [5], the system named is OVCAR-3 ovarian.
The test system of assay [6] is OVCAR-5 ovarian.
For assay [7], the system named is SK-MEL-5 melanoma.
The subject of assay [8] is SK-OV-3 ovarian.
For assay [9], the system named is U251 CNS.
For assay [10], the system named is UO-31 renal.

The structures appear in SMILES notation.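 Growth conditions: 96-well plates. Treatment: test compound, 48 hours, 5 concentrations. Analysis: linear interpolation between bracketing concentrations; unreached endpoints set to highest concentration. GI50: concentration for 50% inhibition of growth. TGI marks complete inhibition of growth.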

The values that follow come from PubChem BioAssay (NCI).

Take `Cc1ccc([Se](=C(C(=O)c2ccccc2)C(=O)c2ccccc2)c2ccc(C)cc2)cc1`: the TGI in [1] was over 100 µM; in [2] it was 54.2 µM; in [3] it was over 100 µM; in assay [4] it was 56.7 µM; in [5], 74.1 µM; in assay [6], over 100 µM. For the same compound, the TGI in assay [7] is 37.2 µM; in assay [8] it was over 100 µM; in assay [9], 68.2 µM; in assay [10] it was over 100 µM.
For the compound `COC(=O)c1ccc2nc(-c3cc4ccccc4n3C)n(CCCCOc3cc4c(cc3OC)C(=O)N3CCC[C@H]3C=N4)c2c1`, the GI50 in assay [1] is 1.5 µM; in [2], 0.273 µM; in [3], 0.713 µM; in [4], 1.23 µM; in [5] it was 0.214 µM; in assay [6], 0.811 µM. Besides, the GI50 is 1.21 µM in [7], 1.86 µM in assay [8], 0.632 µM in assay [9] and 0.389 µM in assay [10]. Also, the TGI came out at 10.3 µM in [1]; 2.07 µM in assay [3]; 8.04 µM in assay [4]; 0.51 µM in [5]; 2.06 µM in [6]; 2.48 µM in assay [7]. Also, the TGI in assay [8] turned out to be 4.67 µM; in assay [9], 2.08 µM; in assay [10], 2.19 µM.
With `CN1CC=C(c2cc(NC(=O)Nc3ccc(Oc4ccnc(NC(=O)C5CC5)c4)c(F)c3)cc(C(F)(F)F)c2)CC1`, the GI50 is 0.247 µM in assay [1]; 0.183 µM in [2]; 0.524 µM in [3]; 1.35 µM in assay [4]; 0.234 µM in assay [5]; 0.289 µM in assay [6]. The GI50 in [7] is 0.853 µM; in [8] it was 2.74 µM; in assay [9], 0.208 µM; in assay [10] it was 1.58 µM. The TGI is 1.8 µM in assay [1]; 0.704 µM in assay [2]; 1.48 µM in assay [3]; 4.03 µM in assay [4]; 4.93 µM in assay [5]; 2.44 µM in assay [6]. Moreover, the TGI in assay [7] is 1.59 µM; in assay [8], 7.25 µM; in assay [9] it was 0.824 µM; in assay [10], 3.57 µM.
For `CC1CCCC(C(=O)CC2CC(=O)NC(=O)C2)C1=O` (configuration not stated), the TGI in assay [1], in assay [2], in assay [3], in assay [4], in assay [5] and in assay [6] was over 100 µM throughout. Further, the TGI in assay [7], in [8], in assay [9] and in [10] was over 100 µM throughout.
As to `CC1CCC2C(C)C(=O)OC3OC4(C)CCC1C32OO4` (configuration not stated), the TGI in [1], in [2], in assay [3], in assay [4], in assay [5] and in assay [6] was over 100 µM each time. Further, the TGI in assay [7], in assay [8], in [9] and in assay [10] was over 100 µM each time. For the same compound, the GI50 in assay [4], in assay [6] and in assay [9] was over 100 µM in each case.
For `Fc1cc(F)c(F)c(S)c1F`, the TGI in assay [1], in assay [2], in assay [3], in assay [4], in assay [5] and in assay [6] was over 100 µM throughout. Moreover, the TGI in assay [7], in assay [8], in [9] and in assay [10] was over 100 µM throughout.
As to `O=C(O)CN(c1ccccc1)S(=O)(=O)c1cccc([N+](=O)[O-])c1`, the TGI in assay [1], in [2], in [3], in [4], in assay [5] and in [6] was over 100 µM each time. For the same compound, the TGI in assay [7], in [8], in assay [9] and in [10] was over 100 µM throughout.
As to `CCc1ccccc1NC(=O)C(C#N)C1=C(Cl)C(=O)c2ccccc2C1=O` (configuration not stated), the TGI in [1] is 54.7 µM; in assay [2] it was 83.3 µM; in assay [3], 21.8 µM; in assay [4] it was 30.4 µM; in assay [5] it was over 100 µM; in [6], 35.2 µM. The TGI was 29.6 µM in assay [7], over 100 µM in assay [8], 29.8 µM in assay [9] and 26.6 µM in assay [10].
